Reference: patent US20220324796A1, “ANTIBIOTIC COMPOUNDS” (The General Hospital Corporation, priority 2019, published 2022)

Tests used:
[1] = Hepatic and renal toxicity (ALT, BUN) in infected mice; format: in vivo, mouse; details: 30 mg/kg i.p., every 12 h for 3 days
Method: Deep-seated mouse thigh infection model. In vivo efficacy of bithionol alone or in combination with gentamicin against MRSA strain MW2 persisters was evaluated using a previously described neutropenic mouse thigh infection model with modifications. Six-week-old female CD-1 mice (20-25 g, Charles River Laboratories, Wilmington, Mass., USA) were rendered neutropenic by administering 150 mg/kg and 100 mg/kg of cyclophosphamide intraperitoneally (i.p.) at 4 days and 1 day before infection, respectively. On the day of infection, overnight culture of S. aureus MW2 were washed 3 times with sterile saline and diluted to ˜10^4 CFU/mL in saline. 50 μl of the diluted culture was injected to the right thigh of each mouse. Bithionol was dissolved in Kolliphor EL (Sigma-Aldrich, St Louis, Mo., USA)/ethanol 1:1 and then diluted 1:10 in saline to a final concentration of 30 mg/kg. […] The levels of alanine aminotransferase and blood urea nitrogen were analyzed with commercially available kits, following the manufacturer's protocol (Pointe Scientific, Canton, Mich., USA) to evaluate hepatic and renal toxicities. […] Statistical significance among each group in animal studies was analyzed by one-way ANOVA with post-hoc Tukey test using GraphPad Prism 7 (GraphPad Software, La Jolla, Calif., USA).

MRSA MW2 cells = experiment: Bacterial membrane permeability assay (SYTOX Green); format: cell-based, S. aureus
Method: Bacterial membrane permeability assay. Exponential-phase or stationary-phase S. aureus MW2 cells prepared as described above under Killing kinetics assay and Persister killing assay, respectively, were washed 3 times with the same volume of PBS. The washed cells were adjusted to OD600=0.4 with PBS. SYTOX Green (Molecular Probes, Waltham, Mass., USA) was added to 10 mL of the diluted bacterial suspension to a final concentration of 5 μM and incubated for 30 min at room temperature in the dark. 50 μl of the bacterial/SYTOX Green suspension was mixed with 50 μl of phosphate buffered saline (PBS) containing twice the desired concentrations of compounds in black, clear-bottom, 96-well plates (Corning no. 3904). Fluorescence was measured at room temperature using a spectrophotometer (SpectraMax M2, Molecular Devices) with excitation and emission wavelengths of 485 nm and 525 nm, respectively. All experiments were conducted in biological triplicate.

[2] = Giant unilamellar vesicles (GUVs) assay, mammalian mimetic
Method: Giant unilamellar vesicles (GUVs) assay. GUVs were prepared by slightly modifying the electroformation method described previously. 1,2-dioleoyl-sn-glycero-3-phosphocholine (DOPC), 1,2-dioleoyl-sn-glycero-3-phospho-(1′-rac-glycerol) (DOPG), 1-palmitoyl-2-oleoyl-glycero-3-phosphocholine (POPC), cholesterol (ovine wool) and 1,2-dioleoyl-sn-glycero-3-phosphoethanolamine-N-(lissamine rhodamine B sulfonyl) (18:1 Liss Rhod PE) were purchased from Avanti Polar Lipids (Alabaster, Ala., USA). 4 mM lipid mixtures consisting of DOPC/DOPG/18:1 Liss Rhod PE (7:3:0.005) and POPC/cholesterol/18:1 Liss Rhod PE (7:3:0.005) were dissolved in chloroform respectively. Same procedure was used to prepare both kinds of GUVs. Indium tin oxide (ITO)-coated slides (50×75×1.1 mm, Delta Technologies, Loveland, Colo., USA) were coated with […] of the lipid mixture and dried in a vacuum chamber for 2 h to remove chloroform. An electroformation chamber was made by placing a 2 mm thick Teflon spacer between the two lipid-coated ITO slides. […] After adding 1 μl of compound solution to a well (final compound concentration: 1× MIC), the GUVs were observed and imaged with an optical microscope equipped with fluorescence contrast and a digital camera (63x objectives, Axio Observer. A1 & AxioCam MRm, Zeiss, Germany). […]

S. aureus MW2 = experiment: Membrane fluidity assay (Laurdan GP); format: cell-based; details: 1 h
Method: Membrane fluidity assay. Bacterial membrane fluidity was estimated by slightly modifying previously described methods. An overnight culture of S. aureus MW2 was diluted 1:1,000 in 25 mL TSB. The diluted culture was grown to OD600˜1.5 at 37° C. with shaking at 200 rpm, followed by 10 min incubation with 10 μM Laurdan at room temperature in the dark (Sigma-Aldrich, Cat # 40227). The stained cell culture was washed with PBS 4 times and concentrated 2 times. 100 μL of the 2-fold concentrated culture was mixed with 100 μL of phosphate buffered saline (PBS) containing twice the desired concentrations of compounds in black, clear-bottom, 96-well plates (Corning no. 3904). After 1 h incubation at room temperature in the dark, the Laurdan fluorescence intensities were measured using a spectrophotometer (SpectraMax M2, Molecular Devices) with emission wavelengths of 435 nm and 490 nm upon excitation at 350 nm. The Laurdan GP was calculated using the formula GP=(I435−I490)/(I435+I490). All experiments were conducted in biological triplicate.

human erythrocytes = details: 1 h

For `Oc1c(Cl)cc(Cl)cc1Sc1cc(Cl)cc(Cl)c1O` [bithionol, 6,6′-thio-bis-(2,4-dichlorophenol)], the “hepatic or renal toxicity (ALT and BUN)” value [1] was “no signs of hepatic or renal toxicity”, the “SYTOX Green membrane permeabilization” value (MRSA MW2 cells; MRSA MW2 exponential-phase cells and/or persisters, in words) was “dose-dependent membrane permeability” and the “concentration at which SYTOX Green fluorescence intensity was maximized” value (MRSA MW2 cells; decreased above 8 μg/mL) was 4 µg/mL. For the same molecule, the “effect on 7POPC/3 cholesterol GUVs” value [2] was “did not cause observable effects”, the “concentrations inducing a significant decrease in Laurdan GP” value (S. aureus MW2) was “over 8 μg/mL” and the HC50 (human erythrocytes) was greater than 64 µg/mL.
